Reference: US20240189287A1, “PERIPHERALLY RESTRICTED CB1 RECEPTOR BLOCKERS AND USES THEREOF” (BIONANOSIM (BNS) LTD, priority 2021, published 2024)

What was measured:
[1] = target: CB1 receptor (Homo sapiens (Human), UniProt P21554); assay: CB1 receptor radioligand binding assay, membranes from human source
Method: (§1) Radioligand binding assays: Binding affinity was determined by a radioligand binding assay. The different BB8-conjugates binding to CB1 and CB2 receptors was assessed in competition displacement assays using [^3H]CP-55.940 as the radioligand and crude membranes from mouse brain for CB1 receptor and human kidney cells for CB2 receptor.
(§2) CB1 receptor binding assay: Mouse brain membranes were used as the source material for CB1 receptors. The displacement of specifically bound tritiated CP-55.940 from these membranes using a standard filtration assay was used to determine the Ki values for the test compounds. Briefly. 20 μg of protein was incubated for 1 h at 30° C. in the presence of 0.5 nM [^3H]CP-55,940 and various concentrations (10^−5M-10^−11M) of test compound/control, final volume of 1 mL. The incubation was terminated by rapid filtration and washing, and the amount of specifically bound [^3H]CP-55,940 was determined. Briefly, membranes with bound [^3H]CP-55,940 were separated and washed from free ligand by vacuum filtration, adsorbing the membrane onto a Whatman glass microfiber filter paper ([…], Cat #1821271). Finally, the Whatman filter paper with adsorbed membranes was cut and placed in scintillation liquid (Ultima Gold) for 1 h at 25° C. followed by a β counter reading of bound [^3H]CP-55,940 radioligand. All data were in triplicates with Ki values determined using GraphPad Prism 7.02 analysis software. […] In some cases, membranes from human source were used to determine CB1 receptor binding affinity.

[2] = tested on: P-gp (MDR1); assay: MDR1-MDCK II cell permeation assay (bi-directional permeability, P-gp efflux); assay type: in vitro ADME; details: dog, MDCK-MDR1, pH 7.4; 2 μM, A to B, 2.5 hours
Method in brief: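 Compounds at 2 μM (DMSO <1%) in HBSS with 10 mM Hepes, pH 7.4, were applied apically or basolaterally to MDR1-MDCKII monolayers. A-to-B and B-to-A transport was run in duplicate with or without 10 μM GF120918 for 2.5 h at 37° C, 5% CO2. Compounds were quantified by LC-MS/MS, and efflux ratios were determined.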

[3] = target: T1, CB1 receptor (Mus musculus (Mouse), UniProt P47746); assay: CB1 receptor radioligand binding assay, [3H]CP-55,940 displacement, mouse brain membranes
Method: as §1, §2

[4] = target: T1, CB1 receptor; assay: [35S]GTPγS binding assay for CB1 receptor, mouse brain membranes; assay type: biochemical; details: nature of binding: agonist/antagonist/inverse agonist
Method: For CB1 receptor-mouse brains were dissected and P2 membranes prepared and resuspended at ˜2 μg protein/μL in 1 ml assay buffer (50 mM Tris HCl, 9 mM MgCl2, 0.2 mM EDTA, 150 mM NaCl; pH 7.4). Ligand-stimulated [^35S]GTPγS binding was assayed as described previously (Tam et al., JCI 2010). Briefly, membranes (10 μg protein) were incubated in assay buffer containing 100 μM GDP, 0.05 nM [^35S]GTPγS, test compounds at various concentrations (CP55940/Rimonabant as controls and test compounds for BB8 conjugates), and 1.4 mg/mL fatty acid-free BSA in siliconized glass tubes. Membranes with bound ligand ([^35S]GTPγS) were separated from free ligand by vacuum filtration and were analyzed using β counter as described above. Non-specific binding was determined using 10 μM GTPS (cold GTP). Basal binding was assayed in the absence of the tested compound and in the presence of GDP.

[5] = Pharmacokinetics after oral and IV dosing; assay type: in vivo, C57BL/6J mice; details: for Cmax: male, C57BL/6J, po
Method: Pharmacokinetics: Male C57BL/6J mice (7-9 weeks, N=3 in each group) were used in this study. Mice were fasted at least 12 hr prior to administration of test article and have access to food ad libitum 4 hr post dosing. Appropriate amount of test article was accurately weighted and mixed with the appropriate volume of vehicle to get a clear oral solution. The formulations were prepared on the day of dosing, and mice were dosed via either orally gavage or intravenous injection, up to 4 hr after formulations were prepared. About 30 μL blood per time point was collected from the saphenous vein followed by plasma preparation. Dose formulation and sample analysis was performed by LC-MS/MS method. Plasma concentration versus time data was analyzed by non-compartmental method.

[6] = mouse, plasma, oral administration of 10 and 20 mg/kg, C57BL/6J male mice

T1 sequence (P47746 whole entry): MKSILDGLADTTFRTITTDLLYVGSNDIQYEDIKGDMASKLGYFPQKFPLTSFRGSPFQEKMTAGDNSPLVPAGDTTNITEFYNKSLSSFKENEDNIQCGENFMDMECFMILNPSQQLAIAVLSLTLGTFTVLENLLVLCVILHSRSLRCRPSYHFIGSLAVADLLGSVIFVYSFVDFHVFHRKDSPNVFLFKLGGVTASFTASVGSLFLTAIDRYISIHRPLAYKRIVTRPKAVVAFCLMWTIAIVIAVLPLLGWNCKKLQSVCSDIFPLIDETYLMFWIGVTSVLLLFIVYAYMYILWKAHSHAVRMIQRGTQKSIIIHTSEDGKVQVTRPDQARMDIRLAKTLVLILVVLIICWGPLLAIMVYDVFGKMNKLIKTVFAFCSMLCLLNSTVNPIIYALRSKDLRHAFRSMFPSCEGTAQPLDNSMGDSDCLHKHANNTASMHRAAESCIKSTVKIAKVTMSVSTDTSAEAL
Sequence of CB1 receptor (Homo sapiens (Human), UniProt P21554) (P21554 whole entry): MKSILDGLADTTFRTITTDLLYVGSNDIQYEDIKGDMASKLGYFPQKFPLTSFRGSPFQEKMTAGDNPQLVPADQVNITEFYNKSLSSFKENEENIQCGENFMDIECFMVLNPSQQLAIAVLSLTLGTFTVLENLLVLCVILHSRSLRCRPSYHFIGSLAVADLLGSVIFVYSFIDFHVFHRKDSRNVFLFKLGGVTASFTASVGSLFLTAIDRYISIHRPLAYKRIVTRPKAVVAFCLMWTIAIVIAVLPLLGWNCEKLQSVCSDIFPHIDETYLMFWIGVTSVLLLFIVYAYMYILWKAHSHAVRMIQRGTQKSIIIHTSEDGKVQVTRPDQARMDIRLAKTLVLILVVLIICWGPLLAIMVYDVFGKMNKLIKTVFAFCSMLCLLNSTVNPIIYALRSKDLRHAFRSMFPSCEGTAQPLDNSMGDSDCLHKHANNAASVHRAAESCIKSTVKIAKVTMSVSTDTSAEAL

Compound | Ki [1] | Papp at 2.5 h, 2 μM [2] | affinity / potency against the CB1 receptor (in words) ([3]; CB1 receptor (mouse/human)) | Ki ([3]; mouse (m) CB1 receptor, read-out: CB1R Ki (nM) (m)) | mCB1R GTPγ[^35S] (activity) [4] | Oral bioavail (%) ([5]; absolute, oral 10 and 20 mg/kg vs IV 1 mg/kg, C57BL/6J male mice) | Cmax ([5]; mouse, plasma, 10 mg/kg, oral 10 mg/kg, mice) | Cmax ([5]; mouse, plasma, 20 mg/kg, oral 20 mg/kg, mice) | Cmax ([5]; mouse, plasma, 20 mg/kg, oral administration of 10 and 20 mg/kg (range over both doses), C57BL/6J male mice) | Tmax [5, 6] | half-life [5, 6] | T1/2 ([5]; oral administration of 10 and 20 mg/kg, C57BL/6J male mice)
O=S(=O)(NC1CCCOc2c1nn(-c1ccccc1Cl)c2-c1ccc(Cl)cc1)c1ccc(Cl)cc1 (stereo not drawn) [BNS808, 4-chloro-N-[2-(2-chlorophenyl)-3-(4-chlorophenyl)-5,6,7,8-tetrahydrooxepino[3,2-c]pyrazol-8-yl]benzenesulfonamide] | 0.7 nM | 0.26 ×10⁻⁶ cm/s | – | – | – | – | – | – | – | – | – | –
Cc1ccc(C)c(OCCCC(C)(C)C(=O)NC2CCCOc3c2nn(-c2ccccc2Cl)c3-c2ccc(Cl)cc2)c1 (stereo not drawn) [BNS822, N-[2-(2-chlorophenyl)-3-(4-chlorophenyl)-5,6,7,8-tetrahydrooxepino[3,2-c]pyrazol-8-yl]-5-(2,5-dimethylphenoxy)-2,2-dimethyl-pentanamide] | – | – | high potency | 1.4 nM | Antagonist | 8.62-10.59% | 283 ng/mL | 811 ng/mL | 283 to 811 ng/mL | 2 h | 5.2 h | 5.2 h
